From PubChem BioAssay (NCI)
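Following 48 hours of exposure in 96-well plates, responses at five concentrations were used to interpolate endpoints linearly. At the TGI there is no net growth.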

What was measured:
Test in all cases: DTP human tumour cell line panel, 48 h
SF-539 CNS = tested on: SF-539 CNS
MCF7 breast = tested on: MCF7 breast
COLO 205 colon = tested on: COLO 205 colon
OVCAR-8 ovarian = tested on: OVCAR-8 ovarian
MDA-N = tested on: MDA-N
HOP-62 NSCLC = tested on: HOP-62 NSCLC
CAKI-1 renal = tested on: CAKI-1 renal
EKVX NSCLC = tested on: EKVX NSCLC
SK-OV-3 ovarian = tested on: SK-OV-3 ovarian
SF-295 CNS = tested on: SF-295 CNS
HS 578T breast = tested on: HS 578T breast
MALME-3M melanoma = tested on: MALME-3M melanoma
ACHN renal = tested on: ACHN renal
MOLT-4 leukemia = tested on: MOLT-4 leukemia
NCI-H226 lung = tested on: NCI-H226 lung
OVCAR-5 ovarian = tested on: OVCAR-5 ovarian
HCT-116 colon = tested on: HCT-116 colon
BT-549 breast = tested on: BT-549 breast
TK-10 renal = tested on: TK-10 renal
NCI-H23 lung = tested on: NCI-H23 lung
HCT-15 colon = tested on: HCT-15 colon
A549 NSCLC = tested on: A549 NSCLC
M14 melanoma = tested on: M14 melanoma
UO-31 renal = tested on: UO-31 renal
NCI-H460 lung = tested on: NCI-H460 lung
HL-60(TB) leukemia = tested on: HL-60(TB) leukemia
KM12 colon = tested on: KM12 colon
NCI/ADR-RES ovarian = tested on: NCI/ADR-RES ovarian
SK-MEL-28 melanoma = tested on: SK-MEL-28 melanoma
A498 renal = tested on: A498 renal
HOP-92 NSCLC = tested on: HOP-92 NSCLC
SK-MEL-5 melanoma = tested on: SK-MEL-5 melanoma
MDA-MB-231 breast = tested on: MDA-MB-231 breast
SF-268 CNS = tested on: SF-268 CNS
SK-MEL-2 melanoma = tested on: SK-MEL-2 melanoma
SW-620 colon = tested on: SW-620 colon
HCC-2998 colon = tested on: HCC-2998 colon
MDA-MB-435 = tested on: MDA-MB-435
HT29 colon = tested on: HT29 colon
OVCAR-3 ovarian = tested on: OVCAR-3 ovarian
CCRF-CEM leukemia = tested on: CCRF-CEM leukemia
SNB-75 CNS = tested on: SNB-75 CNS
786-0 renal = tested on: 786-0 renal
IGROV1 ovarian = tested on: IGROV1 ovarian
OVCAR-4 ovarian = tested on: OVCAR-4 ovarian
UACC-257 melanoma = tested on: UACC-257 melanoma
DU-145 prostate = tested on: DU-145 prostate
RXF 393 renal = tested on: RXF 393 renal
SNB-19 CNS = tested on: SNB-19 CNS
K-562 leukemia = tested on: K-562 leukemia
NCI-H522 lung = tested on: NCI-H522 lung
T-47D breast = tested on: T-47D breast
LOX IMVI melanoma = tested on: LOX IMVI melanoma
SR leukemia = tested on: SR leukemia
RPMI-8226 leukemia = tested on: RPMI-8226 leukemia
PC-3 prostate = tested on: PC-3 prostate
SN12C renal = tested on: SN12C renal
UACC-62 melanoma = tested on: UACC-62 melanoma
U251 CNS = tested on: U251 CNS
DMS 114 small cell lung = tested on: DMS 114 small cell lung
KM20L2 colon = tested on: KM20L2 colon
LXFL 529 NSCLC = tested on: LXFL 529 NSCLC
M19-MEL melanoma = tested on: M19-MEL melanoma

Measured: TGI

COC(=O)c1sc2c(=O)c(C(=O)OC)c(C(=O)OC)sc2c(=O)c1C(=O)OC
> 100 µM: SF-539 CNS | MCF7 breast | COLO 205 colon | OVCAR-8 ovarian | MDA-N | HOP-62 NSCLC | CAKI-1 renal | EKVX NSCLC | SK-OV-3 ovarian | SF-295 CNS | HS 578T breast | MALME-3M melanoma | ACHN renal | MOLT-4 leukemia | NCI-H226 lung | OVCAR-5 ovarian | HCT-116 colon | BT-549 breast | TK-10 renal | NCI-H23 lung | HCT-15 colon | A549 NSCLC | M14 melanoma | UO-31 renal | NCI-H460 lung | HL-60(TB) leukemia | KM12 colon | NCI/ADR-RES ovarian | SK-MEL-28 melanoma | A498 renal | HOP-92 NSCLC | SK-MEL-5 melanoma | MDA-MB-231 breast | SF-268 CNS | SK-MEL-2 melanoma | SW-620 colon | HCC-2998 colon | MDA-MB-435 | HT29 colon | OVCAR-3 ovarian | CCRF-CEM leukemia | SNB-75 CNS | 786-0 renal | IGROV1 ovarian | OVCAR-4 ovarian | UACC-257 melanoma | DU-145 prostate | RXF 393 renal | SNB-19 CNS | K-562 leukemia | T-47D breast | LOX IMVI melanoma | SR leukemia | RPMI-8226 leukemia | PC-3 prostate | SN12C renal | UACC-62 melanoma | U251 CNS
65.2 µM: NCI-H522 lung

CN=c1ssc(=S)n1C(C)C
67.1 µM: HOP-92 NSCLC
28.6 µM: M19-MEL melanoma
31.1 µM: UACC-62 melanoma
35 µM: OVCAR-3 ovarian
86.6 µM: SF-539 CNS
9.24 µM: SK-MEL-28 melanoma
52.3 µM: SNB-75 CNS
11.8 µM: CCRF-CEM leukemia
19.9 µM: LXFL 529 NSCLC
88.2 µM: CAKI-1 renal
79 µM: M14 melanoma
> 100 µM: OVCAR-8 ovarian | EKVX NSCLC | SF-295 CNS | NCI-H226 lung | HCT-116 colon | TK-10 renal | A549 NSCLC | UO-31 renal | NCI-H460 lung | KM12 colon | SK-MEL-5 melanoma | SF-268 CNS | SK-MEL-2 melanoma | SNB-19 CNS
51.7 µM: MOLT-4 leukemia
60.3 µM: RPMI-8226 leukemia
95.5 µM: ACHN renal
41.4 µM: KM20L2 colon
46.4 µM: IGROV1 ovarian
80.7 µM: NCI-H23 lung
16.2 µM: HT29 colon
53.5 µM: UACC-257 melanoma
39.4 µM: COLO 205 colon
20.6 µM: SW-620 colon
22.4 µM: RXF 393 renal
14.7 µM: HL-60(TB) leukemia
43.7 µM: HOP-62 NSCLC
20.3 µM: DMS 114 small cell lung
27.8 µM: HCC-2998 colon
